The values below come from patent US8129396B2, “2-[1H-benzimidazol-2(3H)-ylidene]-2-(pyrimidin-2-yl)acetamides and 2-[benzothiazol-2(3H)-ylidene]-2-(pyrimidin-2-yl)acetamides as kinase inhibitors” (Telik, Inc., priority 2008, dated 2012).

Each structure is given as a SMILES string. A value given as a limit tells only on which side of the number the result lay.

One test addresses T1, Aurora kinase C (Homo sapiens, UniProt Q9UQB9).
T1 sequence (Q9UQB9 1-309): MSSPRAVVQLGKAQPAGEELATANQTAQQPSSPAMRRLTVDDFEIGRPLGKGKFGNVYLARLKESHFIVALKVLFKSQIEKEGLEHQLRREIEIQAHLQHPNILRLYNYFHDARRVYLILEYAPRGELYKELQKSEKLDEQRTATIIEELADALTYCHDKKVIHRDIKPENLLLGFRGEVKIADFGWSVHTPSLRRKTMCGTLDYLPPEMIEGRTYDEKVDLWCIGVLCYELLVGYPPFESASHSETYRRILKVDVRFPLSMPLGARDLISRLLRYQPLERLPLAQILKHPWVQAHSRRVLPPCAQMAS
The conditions noted are these: reported; cited from earlier work.

Test [1] concerns HL60 (human promyelocytic leukemia) cells. The test is described as follows: HL60 cytotoxicity assay (CellTiter-Glo). The format is cell-based. As to conditions: HL-60, 72 h, cytotoxicity, three days culture, read-out: HL60 IC50.
The test system of test [2] is HCT116 (human colon carcinoma) cells. The test is described as follows: HCT116 cytotoxicity assay (CellTiter-Glo). The format is cell-based. As to conditions: HCT-116, 72 h, cytotoxicity, three days culture, read-out: HCT116 IC50. For orientation: Cellular ATP, detected with luciferase, serves as a proxy for viable cell number.
Test [3] concerns HCT116 (human colon carcinoma) xenograft. The test is described as follows: HCT116 xenograft assay, oral administration. The class given is in vivo, athymic nu/nu mice. As to conditions: 150 mg/Kg by gavage once/day on days 1-5 and 8-12; measured 9 days after last treatment. As for the experimental part: Male athymic nu/nu mice, 6-8 weeks old (about 20 g), were implanted subcutaneously in the right fore flank with about 1×10^7 cells of the HCT116 (human colon carcinoma) line that had been grown in antibiotic-free medium for at least two passages. About 14-21 days after tumor transplantation, when the tumor weight was about 50-250 mg, the mice were assigned to treatment groups. […] Groups of mice were treated with compounds 39A, 40A, 60A, 75A, 95A, and 117A at 150 mg/Kg by gavage once/day on days 1-5 and 8-12 from the start of treatment, with vehicle control. Tumor growth inhibition was measured 9 days after the last day of treatment.

The next test concerns the target T2, Aurora A kinase (Homo sapiens, UniProt O14965).
T2 construct: purchased Upstate Biotech
T2 sequence (O14965 1-403): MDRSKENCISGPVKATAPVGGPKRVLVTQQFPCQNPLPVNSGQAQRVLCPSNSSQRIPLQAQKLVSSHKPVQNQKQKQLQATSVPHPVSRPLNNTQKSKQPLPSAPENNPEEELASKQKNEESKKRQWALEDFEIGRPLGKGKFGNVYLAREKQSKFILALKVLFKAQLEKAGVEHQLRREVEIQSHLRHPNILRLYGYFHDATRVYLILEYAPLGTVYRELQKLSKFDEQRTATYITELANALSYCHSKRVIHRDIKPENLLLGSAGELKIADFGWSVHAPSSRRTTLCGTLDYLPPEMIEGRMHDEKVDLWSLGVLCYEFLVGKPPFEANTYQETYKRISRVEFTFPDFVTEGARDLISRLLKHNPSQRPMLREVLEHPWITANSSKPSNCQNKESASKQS
The test is described as follows: Aurora A kinase assay (IMAP fluorescence polarization). As to conditions: 10 μM ATP; rounded to 1 significant figure; read-out: Aur-A IC50. The format is biochemical. In a few lines:
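Compounds (eight 3-fold dilutions, 2.5% DMSO final) were preincubated 5 min at room temperature with Aurora A kinase in buffer with 1 mM DTT. Reaction with 100 nM fluorescein-PKAtide and 10 μM ATP ran 45 min at room temperature, then was stopped with IMAP binding reagent; fluorescence polarization was read after 30 min.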
Background: In fluorescence polarisation assays a small probe gives low polarisation when free and higher when bound to something large.

The subject of test [4] is HL60 (human promyelocytic leukemia) xenograft. The test is described as follows: HL60 xenograft assay, oral administration. The class given is in vivo, athymic nu/nu mice. The conditions noted are these: 150 mg/Kg by gavage once/day on days 1-5 and 8-10; measured 1-2 days after last treatment. As to the method: Male athymic nu/nu mice, 6-8 weeks old (about 20 g), were implanted subcutaneously in the right fore flank with about 1×10^7 cells of the HL60 (human promyelocytic leukemia) line that had been grown in antibiotic-free medium for at least two passages. About 6 days after tumor implantation, when the tumor weight was about 50-250 mg, the mice were assigned to treatment groups. […] […] Tumor growth inhibition was measured 1-2 days after the last day of treatment.

In another test the target is T3, VEGFR2 kinase (Homo sapiens, UniProt P35968).
T3 construct: purchased Cell Signaling Technology
T3 sequence (P35968 20-1356): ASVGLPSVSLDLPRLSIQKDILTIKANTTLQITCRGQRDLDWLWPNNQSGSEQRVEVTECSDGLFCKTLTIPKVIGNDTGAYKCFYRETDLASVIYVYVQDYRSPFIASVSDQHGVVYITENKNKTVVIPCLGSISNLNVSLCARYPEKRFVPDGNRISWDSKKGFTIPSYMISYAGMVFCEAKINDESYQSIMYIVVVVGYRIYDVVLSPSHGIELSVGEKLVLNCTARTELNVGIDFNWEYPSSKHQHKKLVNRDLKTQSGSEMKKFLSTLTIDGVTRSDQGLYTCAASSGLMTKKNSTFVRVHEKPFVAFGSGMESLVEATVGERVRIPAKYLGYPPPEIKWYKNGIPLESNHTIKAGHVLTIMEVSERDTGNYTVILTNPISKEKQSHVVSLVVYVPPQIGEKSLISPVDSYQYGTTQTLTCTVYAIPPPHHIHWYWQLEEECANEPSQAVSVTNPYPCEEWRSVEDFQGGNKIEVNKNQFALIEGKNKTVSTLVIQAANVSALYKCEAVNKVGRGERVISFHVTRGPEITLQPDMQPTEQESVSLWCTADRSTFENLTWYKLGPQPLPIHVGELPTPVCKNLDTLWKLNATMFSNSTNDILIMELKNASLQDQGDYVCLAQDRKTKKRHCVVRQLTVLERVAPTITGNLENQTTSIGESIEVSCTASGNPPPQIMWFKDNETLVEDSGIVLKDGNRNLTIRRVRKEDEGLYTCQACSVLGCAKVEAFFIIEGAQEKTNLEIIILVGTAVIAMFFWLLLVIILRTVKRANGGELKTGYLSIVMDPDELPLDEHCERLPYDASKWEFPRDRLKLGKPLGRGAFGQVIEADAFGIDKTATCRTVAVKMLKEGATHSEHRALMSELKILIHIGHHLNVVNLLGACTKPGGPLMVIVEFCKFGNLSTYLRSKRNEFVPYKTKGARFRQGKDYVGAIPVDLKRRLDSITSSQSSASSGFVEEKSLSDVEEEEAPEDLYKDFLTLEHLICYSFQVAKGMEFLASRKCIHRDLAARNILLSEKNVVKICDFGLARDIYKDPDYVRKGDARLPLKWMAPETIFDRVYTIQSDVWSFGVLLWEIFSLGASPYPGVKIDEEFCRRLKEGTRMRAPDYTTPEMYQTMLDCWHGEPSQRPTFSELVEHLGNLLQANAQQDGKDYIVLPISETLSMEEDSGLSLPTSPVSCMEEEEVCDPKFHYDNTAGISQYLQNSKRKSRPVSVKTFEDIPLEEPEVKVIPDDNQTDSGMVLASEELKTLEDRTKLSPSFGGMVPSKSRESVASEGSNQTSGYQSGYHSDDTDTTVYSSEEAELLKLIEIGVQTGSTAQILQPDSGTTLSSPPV
The test is described as follows: VEGFR2 kinase assay. The class given is biochemical. The conditions noted are these: 6 μM ATP, 1 mM MnCl2; rounded to 1 significant figure. A digest of the protocol:
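VEGFR2 phosphorylates CSKtide with 6 μM ATP and 1 mM MnCl2 for 1 hr, otherwise following the Aurora A kinase protocol. Detection by IMAP fluorescence polarization, binding reagent diluted 1:1200 in 1:1 binding buffer A/B. Run in duplicate with solvent control.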

For the next test, the target named is T4, Aurora B kinase (Homo sapiens, UniProt Q96GD4).
T4 construct: purchased BPS Bioscience
T4 sequence (Q96GD4 whole entry): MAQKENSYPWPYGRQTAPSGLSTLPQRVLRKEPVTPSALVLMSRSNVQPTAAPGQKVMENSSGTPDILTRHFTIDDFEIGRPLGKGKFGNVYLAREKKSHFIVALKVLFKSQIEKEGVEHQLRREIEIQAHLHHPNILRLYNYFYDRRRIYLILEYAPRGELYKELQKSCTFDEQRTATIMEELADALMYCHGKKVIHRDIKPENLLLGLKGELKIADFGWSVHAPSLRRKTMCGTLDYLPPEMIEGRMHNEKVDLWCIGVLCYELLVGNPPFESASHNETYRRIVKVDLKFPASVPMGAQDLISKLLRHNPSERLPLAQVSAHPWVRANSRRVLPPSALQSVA
The test is described as follows: Aurora B kinase assay (IMAP fluorescence polarization). As to conditions: 10 μM ATP; rounded to 1 significant figure; read-out: Aur-B IC50. The format is biochemical. A digest of the protocol:
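Reaction started with 100 nM fluorescein-labelled PKAtide and 10 μM ATP, run 45 min at room temperature, then stopped with IMAP binding reagent (1:400). After 30 min shaking at room temperature, fluorescence polarization read; run in duplicate with solvent control.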

In another test the test system is p-H3 in HCT116 cells. The test is described as follows: Histone phosphorylation (p-H3) assay. The format is cell-based. The conditions noted are these: Homo sapiens, HCT-116; HCT116 cells, 4 hr incubation; read-out: p-H3 IC50. A digest of the protocol:
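HCT116 cells (2.5×10^4/well, attached overnight) treated 4 h with 8-point 3-fold compound dilutions at 0.5% DMSO. Lysates dot-blotted onto nitrocellulose and probed for p-H3 with β-actin on the same membrane, fluorescent secondary antibodies, Odyssey scan; duplicate wells.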

Test [5] relates to HUVEC-2 (human umbilical vein endothelial cells). The test is described as follows: HUVEC VEGF-dependent proliferation assay (BrdU). The class given is cell-based. As to conditions: VEGF (25 ng/mL)-dependent proliferation, read-out: HUVEC IC50. A digest of the protocol:
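HUVEC-2 cells on gelatin got serially diluted compound (0.5% DMSO final), and VEGF (25 ng/mL) was added 2 hr later. BrdU (10 μM) went in after one day, with labelling for another day. VEGF-dependent proliferation was read by BrdU detection, in triplicate.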

Broadly, the IC50 is the concentration that inhibits the measured activity by half. With `Cc1nc(N)sc1-c1ccnc(Nc2ccc(N3CCOCC3)cc2)n1` [CYC116], the IC50 at Aurora kinase C is < 100 nM.
Consider `NC(=O)/C(=C1\Nc2ccc(CCn3ccnc3)cc2S1)c1nccc(C(F)(F)F)n1` [Compound 95A], for which the IC50 in test [1] is 2000 nM; in test [2], 2000 nM; on Aurora A kinase, 20 nM; against VEGFR2 kinase it was 20 nM; on Aurora B kinase, 4 nM; with p-H3 in HCT116 cells it was 50 nM. Besides, in test [5], the concentration for half-maximal inhibition (IC50) worked out at 50 nM. Moreover, the “inhibition of tumor growth compared to vehicle” value in test [3] is recorded as 61%; in test [4], 59%.
